Patent US8563505B2, “Hepatitis C virus inhibitors” (priority 2008, dated 2013)
pEC50, pIC50: −log10 of the molar value.

Tests used:
[1] = target: T1, HCV NS3/4A protease complex (Hepatitis C virus genotype 1a, UniProt P27958, C1454S/C1711G); assay: FRET peptide assay to monitor HCV NS3/4A proteolytic activity; format: biochemical; details: class symbols; NS3/4A strain not stated
T1 construct: DNA encoding the recombinant HCV NS3/4A protease complex (amino acids 1027 to 1711) for these strains; inferred from pET21b vector and Ni-NTA purification) (C); made in house; host or cells: Escherichia coli BL21 (DE3), pET21b
T1 sequence (P27958 1027-1711 C1454S/C1711G, one chain of several): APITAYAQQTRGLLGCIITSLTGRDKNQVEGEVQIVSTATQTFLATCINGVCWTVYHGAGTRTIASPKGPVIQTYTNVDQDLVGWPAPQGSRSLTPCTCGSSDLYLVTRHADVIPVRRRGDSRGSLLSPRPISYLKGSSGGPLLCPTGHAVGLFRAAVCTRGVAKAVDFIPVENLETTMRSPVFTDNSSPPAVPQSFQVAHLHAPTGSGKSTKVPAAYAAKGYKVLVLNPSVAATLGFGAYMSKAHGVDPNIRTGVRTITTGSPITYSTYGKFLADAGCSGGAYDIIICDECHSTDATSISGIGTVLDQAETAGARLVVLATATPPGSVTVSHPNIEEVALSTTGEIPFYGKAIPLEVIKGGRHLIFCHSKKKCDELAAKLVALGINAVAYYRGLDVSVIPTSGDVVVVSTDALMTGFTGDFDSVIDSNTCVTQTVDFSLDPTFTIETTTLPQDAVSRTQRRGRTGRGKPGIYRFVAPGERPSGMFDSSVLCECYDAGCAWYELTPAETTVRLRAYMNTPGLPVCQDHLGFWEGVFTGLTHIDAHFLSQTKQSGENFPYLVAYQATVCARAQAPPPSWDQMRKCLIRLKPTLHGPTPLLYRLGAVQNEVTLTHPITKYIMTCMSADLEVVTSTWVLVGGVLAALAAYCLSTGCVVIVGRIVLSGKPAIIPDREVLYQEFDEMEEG
Excerpt: HCV NS3 protease complexes, derived from the BMS strain, H77 strain or J4L6S strain, were generated, as described below. These purified recombinant proteins were generated for use in a homogeneous assay (see below) to provide an indication of how effective compounds of the present disclosure would be in inhibiting HCV NS3 proteolytic activity.
The H77 and J4L6S strains were used for production of recombinant NS3/4A protease complexes. DNA encoding the recombinant HCV NS3/4A protease complex (amino acids 1027 to 1711) for these strains was manipulated as described by P. Gallinari et al. (see Gallinari P, Paolini C, Brennan D, Nardi C, Steinkuhler C, De Francesco R. Biochemistry. 38(17):5620-32, (1999)). Briefly, a three-lysine solubilizing tail was added at the 3′-end of the NS4A coding region. The cysteine in the P1 position of the NS4A-NS4B cleavage site (amino acid 1711) was changed to a glycine to avoid the proteolytic cleavage of the lysine tag. Furthermore, a cysteine to serine mutation was introduced by PCR at amino acid position 1454 to prevent the autolytic cleavage in the NS3 helicase domain. The variant DNA fragment was cloned in the pET21b bacterial expression vector (Novagen) and the NS3/4A complex was expressed in Escherichia coli strain BL21 (DE3) (Invitrogen) following the protocol described by P. Gallinari et al. (see Gallinari P, Brennan D, Nardi C, Brunetti M, Tomei L, Steinkuhler C, De Francesco R., J Virol. 72(8):6758-69 (1998)) with modifications. Briefly, the NS3/4A protease complex expression was induced with 0.5 millimolar (mM) Isopropyl β-D-1-thiogalactopyranoside (IPTG) for 22 hours (h) at 20° C. A typical fermentation (1 Liter (L)) yielded approximately 10 grams (g) of wet cell paste. The cells were resuspended in lysis buffer (10 mL/g) consisting of 25 mM N-(2-Hydroxyethyl)Piperazine-N′-(2-Ethane Sulfonic acid) (HEPES), pH 7.5, 20% glycerol, 500 mM Sodium Chloride (NaCl), 0.5% Triton X-100, 1 microgram/milliliter ([…]) lysozyme, 5 mM Magnesium Chloride (MgCl2), 1 μg/ml DnaseI, 5 mM […] (βME), Protease inhibitor-Ethylenediamine Tetraacetic acid (EDTA) free (Roche), homogenized and incubated for 20 minutes (min) at 4° C. The homogenate was sonicated and clarified by ultra-centrifugation at 235000 g for 1 hour (h) at 4° C. Imidazole was added to the supernatant to a final concentration of 15 mM and the pH adjusted to 8.0. The crude protein extract was loaded on a Nickel-Nitrilotriacetic acid (Ni-NTA) column pre-equilibrated with buffer B (25 mM HEPES, pH 8.0, 20% glycerol, 500 mM NaCl, 0.5% Triton X-100, 15 mM imidazole, 5 mM βME). The sample was loaded at a flow rate of 1 mL/min. The column was washed with 15 column volumes of buffer C (same as buffer B except with 0.2% Triton X-100). The protein was eluted with 5 column volumes of buffer D (same as buffer C except with 200 mM Imidazole).
NS3/4A protease complex-containing fractions were pooled and loaded on a desalting column Superdex-S200 pre-equilibrated with buffer D (25 mM HEPES, pH 7.5, 20% glycerol, 300 mM NaCl, 0.2% Triton X-100, 10 mM (βME). Sample was loaded at a flow rate of 1 mL/min. NS3/4A protease complex-containing fractions were pooled and concentrated to approximately 0.5 mg/ml. The purity of the NS3/4A protease complexes, derived from the BMS, H77 and J4L6S strains, were judged to be greater than 90% by SDS-PAGE and mass spectrometry analyses. The enzyme was stored at −80° C., thawed on ice and diluted prior to use in assay buffer.
The purpose of this in vitro assay was to measure the inhibition of HCV NS3 protease complexes, derived from the BMS strain, H77 strain or J4L6S strain, as described above, by compounds of the present disclosure. This assay provides an indication of how effective compounds of the present disclosure would be in inhibiting HCV NS3 proteolytic activity.
In order to monitor HCV NS3/4A protease activity, an NS3/4A peptide substrate was used. […]

[2] = system: HCV replicon in HUH-7 cells; assay: HCV replicon assay (FRET, confirmed by luciferase reporter); format: cell-based, Hepatitis C virus (strain 1b); details: Hepatitis C virus, 96 h; class symbols; HUH-7 replicon cells, 4 days
Excerpt: An HCV replicon whole cell system was established as described by Lohmann V, Korner F, Koch J, Herian U, Theilmann L, Bartenschlager R., Science 285(5424):110-3 (1999). This system enabled us to evaluate the effects of our HCV Protease compounds on HCV RNA replication. Briefly, using the HCV strain 1b sequence described in the Lohmann paper (Assession number: AJ238799), an HCV cDNA was synthesized by Operon Technologies, Inc. (Alameda, Calif.), and the full-length replicon was then assembled in plasmid pGem9zf(+) (Promega, Madison, Wis.) using standard molecular biology techniques. The replicon consists of (i) the HCV 5′ UTR fused to the first 12 amino acids of the capsid protein, (ii) the neomycin phosphotransferase gene (neo), (iii) the IRES from encephalomyocarditis virus (EMCV), and (iv) HCV NS3 to NS5B genes and the HCV 3′ UTR. Plasmid DNAs were linearized with Seal and RNA transcripts were synthesized in vitro using the T7 MegaScript transcription kit (Ambion, Austin, Tex.) according to manufacturer's directions. In vitro transcripts of the cDNA were transfected into the human hepatoma cell line, HUH-7. […] Resulting cell lines were characterized for positive and negative strand RNA production and protein production over time.
The HCV replicon FRET assay was developed to monitor the inhibitory effects of compounds described in the disclosure on HCV viral replication. HUH-7 cells, constitutively expressing the HCV replicon, were grown in Dulbecco's Modified Eagle Media (DMEM) (Gibco-BRL) containing 10% Fetal calf serum (FCS) (Sigma) and 1 mg/ml G418 (Gibco-BRL). Cells were seeded the night before (1.5×10^4 cells/well) in 96-well tissue-culture sterile plates. Compound and no compound controls were prepared in DMEM containing 4% FCS, 1:100 Penicillin/Streptomysin (Gibco-BRL), 1:100 L-glutamine and 5% DMSO in the dilution plate (0.5% DMSO final concentration in the assay). Compound/DMSO mixes were added to the cells and incubated for 4 days at 37° C. After 4 days, cells were first assessed for cytotoxicity using alamar Blue (Trek Diagnostic Systems) for a CC50 reading. The toxicity of compound (CC50) was determined by adding 1/10th volume of alamar Blue to the media incubating the cells. After 4 h, the fluorescence signal from each well was read, with an excitation wavelength at 530 nm and an emission wavelength of 580 nm, using the Cytofluor Series 4000 (Perspective Biosystems). Plates were then rinsed thoroughly with Phosphate-Buffered Saline (PBS) (3 times 150 μl).
As a secondary assay, EC50 determinations from the replicon FRET assay were confirmed in a replicon luciferase reporter assay. Utilization of a replicon luciferase reporter assay was first described by Krieger et al (Krieger N, Lohmann V, and Bartenschlager R, J. Viral. 75(10):4614-4624 (2001)). The replicon construct described for our FRET assay was modified by inserting cDNA encoding a humanized form of the Renilla luciferase gene and a linker sequence fused directly to the 3′-end of the luciferase gene. This insert was introduced into the replicon construct using an Asc1 restriction site located in core, directly upstream of the neomycin marker gene. The adaptive mutation at position 1179 (serine to isoleucine) was also introduced (Blight K J, Kolykhalov, A A, Rice, C M, Science 290(5498):1972-1974). A stable cell line constitutively expressing this HCV replicon construct was generated as described above. The luciferase reporter assay was set up as described for the HCV replicon FRET assay with the following modifications. Following 4 days in a 37° C./5% CO2 incubator, cells were analyzed for Renilla Luciferase activity using the Promega Dual-Glo Luciferase Assay System. Media (100 μl) was removed from each well containing cells. To the remaining 50 μl of media, 50 μl of Dual-Glo Luciferase Reagent was added, and plates rocked for 10 min to 2 h at room temperature. […]

Compound	pIC50 [1]	pEC50 [2]
C=C[C@@H]1C[C@]1(NC(=O)[C@@H]1C[C@]2(OC)CN1C(=O)[C@H](C(C)(C)C)NC(=O)OCC(C)(C)CCCCc1ccccc1-c1ccc2cc1)C(=O)NS(=O)(=O)C1CC1 [Example 6]	8.52 to 9.00	8.00 to 8.26
CO[C@@]12C[C@@H](C(=O)N[C@]3(C(=O)NS(=O)(=O)C4CC4)C[C@H]3C(F)F)N(C1)C(=O)[C@H](C(C)(C)C)NC(=O)OCC(C)(C)CCCCc1ccccc1-c1ccc2cc1 [Example 7]	8.52 to 9.00	8.00 to 8.26
C=C[C@@H]1C[C@]1(NC(=O)[C@@H]1C[C@]2(OC)CN1C(=O)[C@H](C(C)(C)C)NC(=O)OCCC(C)(C)CCCc1ccccc1-c1ccc2cc1)C(=O)NS(=O)(=O)C1CC1 [Example 4]	8.52 to 9.00	7.70 to 7.96
